Tests used:
[1] = test system: stereotypy induced by amphetamine; experiment: Potentiation of the stereotypy induced by amphetamine, scale of Constall and Naylor; format: in vivo; settings: ip; 10 mg/kg i.p. + amphetamine 3 mg/kg s.c.
Protocol: The potentiation of the stereotypy evoked by amphetamine was evaluated according to the scale of Constall and Naylor (Eur. J. Pharmacol. 18, 95, 1972).
*10 mg/kg i.p. + amphetamine 3 mg/kg s.c.

[2] = test system: mice; experiment: Acute toxicity (dead/treated animals); format: in vivo
Protocol: The SMA inhibiting effect and the acute toxicity data (dead/treated animals, shown in brackets) of the new compounds are provided in Table II.
The experiments were performed according to the method of S.Irwin [Psychopharm. 13, 222 (1968)].

[3] = test system: convulsions evoked by pentetrazole; experiment: Inhibition of pentetrazole-evoked convulsions, method of Goodmann et al.; format: in vivo; settings: Mus musculus, ip; mice, 30 mg/kg i.p.; 50 mg/kg i.v. pentetrazole
Protocol: The compounds of general formula (I) exert a moderate anticonvulsive effect, too. This latter was measured in mice applying the method of Goodmann et al.[J. Pharmacol. Exp. Ther. 106, 319, (1952)]. The convulsions evoked by 50 mg/kg i.v. of pentetrazole were inhibited by 30-40% and 50-55% after the i.p. administration of 30 mg/kg of the compounds of Examples 10., 11., 13., 19., 28., 35, 40., and Examples 34 and 38, respectively.

[4] = test system: hippocampal CA1 field potentials (glutamate acting mainly through AMPA receptors); experiment: Inhibition of CA1 field potentials in hippocampal slices (glutamatergic transmission), method of Tarnawa et al.; design: species or system rat; settings: for Inhibition (%) 30 minutes after drug administration / Inhibition (%) 60 minutes after drug administration / Inhibition (%) after 30 minutes wash-out / efficacy compared to GYKI-52466: 50 μM; for Inhibition (%) after 30 minutes wash-out: *p < 0.05 compared to the 60 minutes value; for duration of action compared to known molecules / GYKI-52466 / efficacy compared to GYKI-52466: hippocampal slices; for effect of 30 minutes wash-out on the inhibition: wash-out lasting 30 minutes vs preceding 60 minutes incubation
Protocol: The effects of the compounds on the glutamatergic transmission were studied in hippocampal slices applying the method of Tarnawa et al. (Acta Physiol. Hung., 79, 163, 1992). 400 μm thick slices were prepared from rat brain and maintained in a chamber of interface type under simulated […] conditions. The Schaffer collaterals were stimulated and field potentials were recorded from the pyramidal cells of the hippocampal CA1 region. The neurotransmitter involved in this process is glutamate acting mainly through AMPA receptors.

Compound | change in vivo at 10 mg/kg [1] [%] | acute toxicity (dead/treated animals) ([2]; i.p. 300 mg/kg) | inhibition in vivo at 30 mg/kg [3] [%] | other results
CC1Cc2cc3c(cc2C(/C=C/c2ccc4c(c2)OCO4)=NN1)OCO3 (centres unmarked) [Example 8] | 113 |  |  | 
CCC1c2cc(OC)c(OC)cc2C(/C=C/c2ccc([N+](=O)[O-])cc2)=NNC1C (centres unmarked) [Example 26, 1-(4-Nitrostyryl)-4-methyl-5-ethyl-7,8-dimethoxy-3,4-dihydro-5H-2,3-benzodiazepine] |  | 0/5 |  | acute toxicity (dead/treated animals) ([2]; p.o. 1000 mg/kg): 0/5
CCC1c2cc(OC)c(OC)cc2C(/C=C/c2ccc(N)cc2)=NNC1C (centres unmarked) [Example 35, 1-(4-Aminostyryl)-4-methyl-5-ethyl-7,8-dimethoxy-3,4-dihydro-5H-2,3-benzodiazepine] |  |  | 30 to 40 | 
COc1cc2c(cc1OC)C(/C=C/c1ccc([N+](=O)[O-])cc1)=NN(C(C)=O)C(C)C2 (centres unmarked) [Example 30, 1-(4-Nitrostyryl)-3-acetyl-4-methyl-7,8-dimethoxy-3,4-dihydro-5H-2,3-benzodiazepine] | 100 |  |  | 
CCOc1cc2c(cc1OCC)C(/C=C/c1ccc(N(C)C)cc1)=NNC(C)C2 (centres unmarked) [Example 10] | 176 |  | 30 to 40 | 
COc1cccc(/C=C/C2=NN(C(C)=O)C(C)Cc3cc4c(cc32)OCO4)c1OC (centres unmarked) [Example 23, 1-(2,3-Dimethoxystyryl)-3-acetyl-4-methyl-7,8-methylenedioxy-3,4-dihydro-5H-2,3-benzodiazepine] |  | 0/5 |  | acute toxicity (dead/treated animals) ([2]; p.o. 1000 mg/kg): 0/5
COc1cc2c(cc1OC)C(/C=C/c1cccc(O)c1)=NNC(C)C2 (centres unmarked) [Example 11] |  |  | 30 to 40 | 
COc1cc2c(cc1OC)C(/C=C/c1ccc(N(C)C)cc1)=NNC(C)C2 (centres unmarked) [Example 7] | 90.2 |  |  | 
CC1Cc2cc3c(cc2C(/C=C/c2ccc(N)cc2)=NN1)OCO3 (centres unmarked) [Example 34, 1-(4-Aminostyryl)-4-methyl-7,8-methylenedioxy-3,4-dihydro-5H-2,3-benzodiazepine] | 92 |  | 50 to 55 | 
COc1cc2c(cc1OC)C(/C=C/c1ccccc1)=NN(C(C)=O)C(C)C2 (centres unmarked) [Example 20, 1-Styryl-3-acetyl-4-methyl-7,8-dimethoxy-3,4-dihydro-5H-2,3-benzodiazepine] |  | 1/5 |  | 
COc1cc2c(cc1OC)C(/C=C/c1cccc(OC)c1OC)=NN(C(C)=O)C(C)C2 (centres unmarked) [Example 22, 1-(2,3-Dimethoxystyryl)-3-acetyl-4-methyl-7,8-dimethoxy-3,4-dihydro-5H-2,3-benzodiazepine] |  | 1/5 |  | Inhibition (%) 30 minutes after drug administration [4]: 4.7 ± 0.84%; Inhibition (%) 60 minutes after drug administration [4]: 37.0 ± 9.19%; Inhibition (%) after 30 minutes wash-out [4]: 74.3 ± 11.53%
CC1Cc2cc3c(cc2C(/C=C/c2ccccc2)=NN1)OCO3 (centres unmarked) [Example 27, 1-Styryl-4-methyl-7,8-methylenedioxy-3,4-dihydro-5H-2,3-benzodiazepine] | 183 | 0/5 |  | 
CCC1c2cc3c(cc2C(/C=C/c2ccc(NC(C)=O)cc2)=NN(C(C)=O)C1C)OCO3 (centres unmarked) [Example 41, 1-(4-Acetylaminostyryl)-3-acetyl-4-methyl-5-ethyl-7,8-methylenedioxy-3,4-dihydro-5H-2,3-benzodiazepine] |  | 0/5 |  | acute toxicity (dead/treated animals) ([2]; p.o. 1000 mg/kg): 0/5; Inhibition (%) 30 minutes after drug administration [4]: 79.5 ± 10.10%; Inhibition (%) 60 minutes after drug administration [4]: 100 ± 0%; Inhibition (%) after 30 minutes wash-out [4]: 98.6 ± 2.67%; duration of action compared to known molecules / GYKI-52466 [4]: surpass that of GYKI-52466; efficacy compared to GYKI-52466 [4]: at least equal efficacy to the molecule GYKI-52466; effect of 30 minutes wash-out on the inhibition [4]: not able to diminish the effect
COc1cc2c(cc1OC)C(/C=C/c1ccc(N)cc1)=NNC(C)C2 (centres unmarked) [Example 33, 1-(4-Aminostyryl)-4-methyl-7,8-dimethoxy-3,4-dihydro-5H-2,3-benzodiazepine] | 202 |  |  | 
CCC1c2cc(OC)c(OC)cc2C(/C=C/c2ccc(N)cc2)=NN(C(C)=O)C1C (centres unmarked) [Example 38, 1-(4-Aminostyryl)-3-acetyl-4-methyl-5-ethyl-7,8-dimethoxy-3,4-dihydro-5H-2,3-benzodiazepine] |  |  | 50 to 55 | 
COc1cc2c(cc1OC)C(/C=C/c1ccc(NC(C)=O)cc1)=NN(C(C)=O)C(C)C2 (centres unmarked) [Example 39, 1-(4-Acetylaminostyryl)-3-acetyl-4-methyl-7,8-dimethoxy-3,4-dihydro-5H-2,3-benzodiazepine] | 113 |  |  | Inhibition (%) 30 minutes after drug administration [4]: 85.3 ± 15.09%; Inhibition (%) 60 minutes after drug administration [4]: 100 ± 0%; Inhibition (%) after 30 minutes wash-out [4]: 97.5 ± 0.98%; duration of action compared to known molecules / GYKI-52466 [4]: surpass that of GYKI-52466; efficacy compared to GYKI-52466 [4]: at least equal efficacy to the molecule GYKI-52466; effect of 30 minutes wash-out on the inhibition [4]: not able to diminish the effect
COc1cc2c(cc1OC)C(/C=C/c1ccccc1Br)=NNC(C)C2 (centres unmarked) [Example 14] | 113 |  |  | 
COc1cc2c(cc1OC)C(/C=C/c1ccc3c(c1)OCO3)=NNC(C)C2 (centres unmarked) [Example 3] |  | 0/5 |  | acute toxicity (dead/treated animals) ([2]; p.o. 1000 mg/kg): 0/5
CC(=O)Nc1ccc(/C=C/C2=NN(C(C)=O)C(C)Cc3cc4c(cc32)OCO4)cc1 (centres unmarked) [Example 40, 1-(4-Acetylaminostyryl)-3-acetyl-4-methyl-7,8-methylenedioxy-3,4-dihydro-5H-2,3-benzodiazepine] | 99.7 |  | 30 to 40 | Inhibition (%) 30 minutes after drug administration [4]: 14.8 ± 7.10%; Inhibition (%) 60 minutes after drug administration [4]: 25.8 ± 3.04%; Inhibition (%) after 30 minutes wash-out [4]: 35.4 ± 2.67%
COc1cc2c(cc1OC)C(c1cccc(Cl)c1)=NN=C(C)C2 [Girisopam, 1-(3-chlorophenyl)-4-methyl-7,8-dimethoxy-5H-2,3-benzodiazepine, reference compound] |  | 0/6 |  | 
COc1ccc(/C=C/C2=NNC(C)Cc3cc4c(cc32)OCO4)cc1C(C)C (centres unmarked) [Example 13] |  |  | 30 to 40 | 
COc1cc2c(cc1OC)C(/C=C/c1ccc(Cl)c(Cl)c1)=NNC(C)C2 (centres unmarked) [Example 28, 1-(3,4-Dichlorostyryl)-4-methyl-7,8-dimethoxy-3,4-dihydro-5H-2,3-benzodiazepine] | 92.5 |  | 30 to 40 | 
COc1ccc(/C=C/C2=NNC(C)Cc3cc4c(cc32)OCO4)cc1OC (centres unmarked) [Example 1, 1-(3,4-Dimethoxystyryl)-4-methyl-7,8-methylenedioxy-3,4-dihydro-5H-2,3-benzodiazepine] |  | 0/5 |  | acute toxicity (dead/treated animals) ([2]; p.o. 1000 mg/kg): 0/5
CC1Cc2cc3c(cc2C(/C=C/c2ccc(N(C)C)cc2)=NN1)OCO3 (centres unmarked) [Example 9] | 141 |  |  | 
COc1ccc(/C=C/C2=NN(C(C)=O)C(C)Cc3cc4c(cc32)OCO4)c(OC)c1 (centres unmarked) [Example 19, 1-(2,4-Dimethoxystyryl)-3-acetyl-4-methyl-7,8-methylenedioxy-3,4-dihydro-5H-2,3-benzodiazepine] |  |  | 30 to 40 | 
COc1ccc(/C=C/C2=NN(C(C)=O)C(C)Cc3cc(OC)c(OC)cc32)c(OC)c1 (centres unmarked) [Example 21, 1-(2,4-Dimethoxystyryl)-3-acetyl-4-methyl-7,8-dimethoxy-3,4-dihydro-5H-2,3-benzodiazepine] |  |  |  | Inhibition (%) 30 minutes after drug administration [4]: 16.1 ± 13.4%; Inhibition (%) 60 minutes after drug administration [4]: 33.7 ± 7.60%; Inhibition (%) after 30 minutes wash-out [4]: 61.1 ± 4.56%
